Results taken from patent publication US20250164476A1, “COLORIMETRIC ASSAY USING DITHIOLATE-GRAFTED NANOPARTICLES FOR HIGH-THROUGHPUT SCREENING OF CRYOPROTECTANTS” (The Government of the United States of America, as …, priority 2023, published 2025).

Legend:
[1] = Ligand effect on the freezing of AuNP (96-well serial dilution); conditions: for appearance of AuNP samples in presence of test ligand: before freezing, 10 nM AuNP in 1×PBS (FIG. 5A); for type of AuNP aggregation on freezing: conclusion from frozen and post-thaw states; for colloidal color of AuNP in frozen state: frozen at −20° C. for 2 hours, serial dilution, ligands from 1 mM, sucrose 40% (FIG. 5B); for colloidal color / optical properties of AuNP at post-thaw state: thawed at room temperature for 30 minutes (FIG. 5C)
Method: In a sample well plate series (96 wells), a 2 millimolar (mM) stock solution of the test ligands was mixed with AuNP, resulting in a 1 mM AuNP-probe solution which was deposited as a highest concentration in respective top wells (using two columns or lanes of wells for each ligand), and was serially diluted by half using 2×PBS buffer for every following well. More specifically, the stock ligand concentration, 1 mM, was diluted by ½, ¼, ⅛, 1/16, 1/32, 1/64, 1/128, and 1/256 times (from top to bottom) by using 2×PBS. After finishing serial dilution of the target materials (four ligands, here), 50 microliters (μL) of 20 nM AuNP were added to each well of the well plate series to make a 10 nM AuNP-probe in 1×PBS in each well as a final concentration. […] See the resulting sample well plate series in FIG. 5A.
FIG. 5B is an image of the 96 well plate series of FIG. 5A after freezing. Specifically, the 96 well plate series was frozen at −20° C. for 2 hours, resulting in the frozen state of the samples depicted in FIG. 5B.
FIG. 5C is an image of the 96 well plate series of FIG. 5B after thawing. More specifically, the 96 well plate series of FIG. 5B was thawed at room temperature for 30 minutes, resulting the post-thaw state of FIG. 5C.

[2] = AuNP-TA/NTA probe colorimetric HTS titration assay for anti-icing activity; conditions: FIG. 8C; 0.2 mg/ml serially diluted, 1×PBS, frozen at −20° C. for 2 hours, thawed
Method: FIG. 6A is an image of a 96 well plate series titration test, utilizing an AuNP-TA/NTA probe in different test solutions at room temperature. From top to bottom there are six different testing targets: (1) AFP 0.3 mg/ml, (2) polyvinyl alcohol (PVA) 10K 0.3%, (3) bovine serum albumin (BSA) 0.3 mg/ml, (4) ethylene glycol (EG) 50%, (5) glycerol (Gly) 50%, and (6) 80 mg/ml zirconium acetate (ZrA). The buffer was 1×PBS except for the last sample ZrA, which was in 40 mM HCl (because ZrA is only active in acidic conditions). The target samples were diluted in rows by ½, ¼, ⅛, 1/16, 1/32, 1/64, 1/128, 1/256, 1/512, 1/1024, 1/2048 and 1/4096 times (from left to right) using 2×PBS or 80 mM HCl (for ZrA). Next, 50 μL of target materials were mixed with 50 μL of 20 nM AuNP-probe to make a final 1×PBS, or 40 mM HCl for the last sample, and 10 nM of AuNP probe in each well. […]
In general, titration is a common laboratory method for quantitative chemical analysis to determine the concentration of an identified analyte in terms of activity. […] Thus, it is necessary to obtain a quantified value or parameter in order to compare different test results in different conditions. […]

[3] = sucrose-based sandwich assay

In the case of “sulfonate modified thioctic acid [TA-SO3]”, the “appearance of AuNP samples in presence of test ligand” value (“appearance of AuNP samples” below) [1] is reported as “well-dispersed without any color changes”, the “type of AuNP aggregation on freezing” value [1] is reported as “reversible aggregation” and the “colloidal color of AuNP in frozen state” value [1] is reported as “red at the highest concentration without any aggregation”. For the same molecule, the “colloidal color / optical properties of AuNP at post-thaw state” value (“colloidal color / optical properties” below) [1] was “almost fully recovered their intrinsic optical properties”.
For “nitrilotriacetic acid modified thioctic acid [TA-NTA]”, the “appearance of AuNP samples” value [1] was “well-dispersed without any color changes”, the “type of AuNP aggregation on freezing” value [1] was “reversible aggregation” and the “colloidal color of AuNP in frozen state” value [1] was “turned translucent at the highest concentrations”. For the same molecule, the “colloidal color / optical properties” value [1] was “almost fully recovered their intrinsic optical properties”.
In the case of `O=C(O)CCCCC1CCSS1` (stereo not shown) [TA, thioctic acid], the “appearance of AuNP samples” value [1] is reported as “well-dispersed without any color changes”, the “type of AuNP aggregation on freezing” value [1] is reported as “irreversible aggregation” and the “colloidal color of AuNP in frozen state” value [1] is reported as “turned translucent at the highest concentrations”. The “colloidal color / optical properties” value [1] was “remained pale at the highest concentration”.
With bovine serum albumin [BSA] the “anti-icing effects from concentration-dependent color changes” value [2] was “low-level anti-icing effects” and the “anti-icing effect in traditional IRI test” value [3] was “confirmed”.
In the case of `OC[C@H]1O[C@@](CO)(O[C@H]2O[C@H](CO)[C@@H](O)[C@H](O)[C@H]2O)[C@@H](O)[C@@H]1O` [sucrose], the “appearance of AuNP samples” value [1] is reported as “well-dispersed without any color changes” and the “colloidal color of AuNP in frozen state” value [1] is reported as “changed from the original red (top well, at the highest concentration) to purple, and finally to pale purple”.
